What was measured:
K562 = assay: Cytotoxicity against human K562 cells; type: functional; conditions: read-out: LC50 (the source's name)
[1] = molecular target: Phospholipase A2 (Homo sapiens) (UniProt P04054); assay: Inhibition of PLA2 at 50 ug/ml
Phospholipase A2 (Homo sapiens), sequence (P04054 23-148 limits assumed): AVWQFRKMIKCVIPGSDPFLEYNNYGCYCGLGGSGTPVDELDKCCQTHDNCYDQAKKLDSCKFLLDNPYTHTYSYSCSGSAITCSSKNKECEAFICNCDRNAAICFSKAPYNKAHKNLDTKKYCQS

**Q.** For `C#C/C=C\CCCCCCCCCCCCCC/C=C\CCCC/C=C\CCCCC#C[C@H](O)C#CCCCCCCCC[C@H](O)C#C` [PETROCORTYNE D], which CC50 (K562) is on record?
**A.** 45 µM

**Q.** `C#C/C=C\CCCCCCCCCCCCCC/C=C\CCC/C=C/C(O)CCCCC#C[C@H](O)C#CCCCCCC/C=C/[C@@H](O)C#C` (some centres undefined) [PETROCORTYNE E] was tested. Which inhibition [1] did it give?
**A.** 48%

**Q.** And the CC50 (K562)?
**A.** 7 µM

**Q.** How did the inhibition [1] turn out when `C#C/C=C\CCCCCCCCCCCCCC/C=C\CCCCC(O)/C=C/CCCC#C[C@H](O)C#CCCCCCC/C=C/[C@@H](O)C#C` (some centres undefined) [PETROCORTYNE F] was run?
**A.** 25%

**Q.** And the CC50 (K562)?
**A.** 21 µM

**Q.** For `C#C/C=C\CCCCCCCCCCCCC/C=C/C(O)CCCC/C=C\CCCCC#C[C@H](O)C#CCCCCCC/C=C/[C@@H](O)C#C` (some centres undefined) [PETROCORTYNE G], which inhibition [1] is on record?
**A.** 36%

**Q.** And the CC50 (K562)?
**A.** 30 µM

**Q.** How did the inhibition [1] turn out when `C#C/C=C\CCCCCCCCCCCCCCC(O)/C=C/CCC/C=C\CCCCC#C[C@H](O)C#CCCCCCC/C=C/[C@@H](O)C#C` (some centres undefined) [PETROCORTYNE H] was run?
**A.** 32%

**Q.** What about the CC50 (K562) of the same molecule?
**A.** 11 µM

From ChEMBL document CHEMBL1150963, “Five new polyacetylenes from a sponge of the genus petrosia” (1998)
